From patent US20050250166A1, “Cdc7-ask kinase complex, substrates of the kinase complex, antibody specific to the substrate, and method of screening compound capable of inhibiting cdc7-ask kinase using the same” (Medical and Biological Laboratories Co. Ltd., priority 2002, published 2005)

Key:
Cdc7-ASK complex = molecular target: T1, Cdc7-ASK complex (Homo sapiens, UniProt O00311); test: ELISA system for measuring inhibition of Cdc7-ASK complex phosphorylation activity (GST-Mcm2 (1-130 a.a.) substrate, anti-Mcm2-phospho-S17 antibody); format: biochemical; conditions: for concentration-dependent inhibitory effect for Cdc7-ASK complex: ELISA, inhibitor dilution series, FIG. 8
T1 construct: made in house; host or cells: E. coli C600 lon-
Experimental: GST-Mcm2 (1-130 a.a.) and GST-Mcm2 (1-80 a.a.) were diluted to 5 μg/ml using 0.1 M carbonate buffer, pipetted at 50 μl/well in to each well of a microtiter plate for ELISA, and then sensitized overnight at 4° C. The sensitizing solution was removed, a blocking solution (1% BSA, 5% sucrose and 0.1% NaN3/PBS) was pipetted in to each well at 200 μl/well, and the plate was allowed to stand for about one hour at room temperature. The blocking solution was then completely removed. The plates were then air-dried in a draft chamber, and stored at 4° C. until use. GST-Mcm2 (1-130 a.a.) and GST-Mcm2 (1-80 a.a.) were immobilized on the inner walls of the microtiter plates by this procedure.
A recombinant Cdc7-ASK complex dilution series was prepared by diluting from one-fold (×1) to 64-fold in two-fold increments using a phosphorylation buffer. 50 μl aliquots of this solution were added to the wells of the immobilized plates (a protein phosphorylation reaction). After incubating at 30° C. for a fixed period of time, the phosphorylation reaction solution was discarded and each well was amply washed four or more times with PBS. […] The primary antibody reaction solution was then discarded and each well was amply washed four or more times with PBS. Anti-rabbit immunoglobulin antibody (secondary antibody, MBL) labeled with horseradish peroxidase (HRP) was then diluted 1000-fold with PBS and added to each well in 50 μl aliquots, then allowed to react for 30 to 60 minutes at room temperature (secondary antibody reaction). The secondary antibody reaction solution was then discarded and each well was washed four or more times with PBS. A coloring substrate solution was then added to each well in 50 μl aliquots, and color was developed for five to 20 minutes (coloring reaction). The coloring reaction was stopped by adding 50 μl aliquots of reaction stopping solution to each well, and the optical absorbance at 450 nm was measured using a microplate reader. […]

HA-huCdc7 (wild type) = molecular target: T2, HA-huCdc7 (wild type) (human, UniProt O00311 14-574); test: co-purification on glutathione Sepharose 4B from E. coli co-expression, SDS-PAGE with silver staining
T2 construct: also called HA-Cdc7
T2 sequence (O00311 other isoform, or with tags, fused parts or gaps): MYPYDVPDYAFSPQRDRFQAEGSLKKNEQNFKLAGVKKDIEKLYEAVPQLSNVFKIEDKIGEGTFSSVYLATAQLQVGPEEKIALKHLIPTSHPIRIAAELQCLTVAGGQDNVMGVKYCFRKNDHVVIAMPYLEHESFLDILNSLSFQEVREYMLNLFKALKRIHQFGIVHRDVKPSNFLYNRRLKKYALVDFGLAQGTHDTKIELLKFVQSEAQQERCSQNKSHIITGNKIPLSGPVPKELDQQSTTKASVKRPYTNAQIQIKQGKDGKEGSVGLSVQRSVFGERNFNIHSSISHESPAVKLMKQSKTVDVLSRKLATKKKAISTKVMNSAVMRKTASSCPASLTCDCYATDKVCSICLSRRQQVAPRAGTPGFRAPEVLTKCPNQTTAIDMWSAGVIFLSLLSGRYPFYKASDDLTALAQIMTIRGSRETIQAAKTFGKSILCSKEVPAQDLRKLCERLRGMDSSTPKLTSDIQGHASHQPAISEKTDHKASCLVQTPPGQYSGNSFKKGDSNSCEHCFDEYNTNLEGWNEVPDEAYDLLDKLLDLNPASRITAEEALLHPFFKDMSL

T1 sequence (O00311 14-574 limits assumed, one chain of several): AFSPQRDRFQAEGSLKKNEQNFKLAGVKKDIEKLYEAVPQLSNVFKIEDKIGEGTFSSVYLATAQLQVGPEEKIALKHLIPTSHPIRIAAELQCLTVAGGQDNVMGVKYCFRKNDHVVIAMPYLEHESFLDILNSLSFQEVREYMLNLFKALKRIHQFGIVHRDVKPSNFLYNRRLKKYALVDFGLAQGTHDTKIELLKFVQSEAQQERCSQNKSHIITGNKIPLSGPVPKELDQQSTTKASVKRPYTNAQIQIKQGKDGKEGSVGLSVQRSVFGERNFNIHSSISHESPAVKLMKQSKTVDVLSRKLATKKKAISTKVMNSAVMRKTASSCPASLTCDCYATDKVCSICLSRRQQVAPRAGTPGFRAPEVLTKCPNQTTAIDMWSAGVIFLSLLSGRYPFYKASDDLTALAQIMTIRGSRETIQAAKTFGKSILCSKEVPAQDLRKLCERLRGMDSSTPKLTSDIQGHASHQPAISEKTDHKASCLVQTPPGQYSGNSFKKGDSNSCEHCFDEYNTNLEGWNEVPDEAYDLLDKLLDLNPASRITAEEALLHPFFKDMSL

Molecule	IC50 (Cdc7-ASK complex) [nM]	concentration-dependent inhibitory effect for Cdc7-ASK complex (Cdc7-ASK complex)	binding result (HA-huCdc7 (wild type))
COC(=O)[C@@]1(O)C[C@H]2O[C@]1(C)n1c3ccccc3c3c4c(c5c6ccccc6n2c5c31)C(=O)NC4 [K-252a]	2000	concentration-dependent	
CC[C@H](CO)Nc1nc(NCc2ccccc2)c2ncn(C(C)C)c2n1 [Roscovitine]		not observed	
GST-TAT-ASK(minimum) (other, also called GST-ASK; partial ASK) YGRKKRRQRRRDIRYYIEQKKKELYLLKKSSTSVRDGGKRVGSGAQKTRTGRLKKPFVKVEDMSQLYRPFYLQLTNMPFINYSIQKPCSPFDVDKPSSMQKQTQVKLRIQTDGDKYGGTSIQLQLKEKKKKGYCECCLQKYEDLETHLLSEQHRNFAQSNQYQVVDDIVSKLVFDFVEYEKDTPKKK			binds
